Read-outs that look alike come from different tables or passages of the source. Ends that are not written are not given here.
Assays:
α-glucosidase = target: α-glucosidase; parameters: method as in PMID 31139399; details: soy protein-derived peptides; cited from earlier work
aldose reductase = aldose reductase (Homo sapiens, UniProt P15121); test: aldose reductase inhibition assay; format: biochemical
Experimental: The aldose reductase inhibition assay was performed according to the method described by Alharbi et al.. Briefly, a 1 mL reaction mixture comprised 0.87 mL of 100 mM Sodium phosphate buffer (pH 6.2), 0.05 mL of 3 mM NADPH, 0.01 mL of human aldose reductase (recombinant, 0.2 U/mL), with the enzyme’s activity being 0.2 IU/mL, and 0.02 mL of test compounds (designated as peptide 1 and peptide 2) at different concentrations. 0.05 mL of the substrate (DL-glyceraldehyde, five mM) was incubated in the reaction mixture for 3 min at 25 °C. Enzyme activity was determined by measuring the reduction in NADPH absorption at 340 nm over 10 min. […] Aldose reductase inhibitory activity was expressed as the percentage of inhibition.

[1] = target: T1, porcine pancreatic α-amylase (Sus scrofa, UniProt P00690); test: α-amylase inhibition assay; format: biochemical
T1 construct: purchased SRL (Sisco Research Laboratories)
T1 sequence (P00690 16-511): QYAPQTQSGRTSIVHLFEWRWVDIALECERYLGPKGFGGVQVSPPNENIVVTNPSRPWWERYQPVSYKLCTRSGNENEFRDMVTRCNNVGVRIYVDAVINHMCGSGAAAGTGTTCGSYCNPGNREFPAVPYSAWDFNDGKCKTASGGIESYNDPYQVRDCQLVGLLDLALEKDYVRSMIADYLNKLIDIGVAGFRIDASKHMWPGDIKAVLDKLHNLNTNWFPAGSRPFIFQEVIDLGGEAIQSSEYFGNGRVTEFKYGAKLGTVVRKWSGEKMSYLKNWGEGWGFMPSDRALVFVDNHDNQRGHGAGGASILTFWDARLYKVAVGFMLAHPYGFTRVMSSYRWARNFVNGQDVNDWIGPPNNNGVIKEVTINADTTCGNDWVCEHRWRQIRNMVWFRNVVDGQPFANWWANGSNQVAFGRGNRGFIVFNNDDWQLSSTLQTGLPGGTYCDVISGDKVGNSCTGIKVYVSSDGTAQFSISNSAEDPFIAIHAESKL
Experimental: The enzymatic reaction was initiated by adding the starch substrate and allowed to proceed for 15 min. The reaction was then terminated by adding the 3,5-dinitrosalicylic acid (DNSA) reagent, and the mixture was heated to boiling for 5 min. […] IC50 values were obtained from plots of percentage inhibition versus sample concentration.

human erythrocytes = test: hemolytic assay; format: cell-based
Experimental: The hemolytic potential of the lead peptides was determined following an established erythrocyte hemolysis protocol. In brief, 15 mL of venous blood was drawn from a healthy individual, centrifuged at 3000 rpm for 10 min, and the plasma was discarded. The residual pellet (RBCs) was washed 3 times with PBS (pH 7.4, 0.1 M), and the resultant pellet was resuspended in PBS in a 1:10 ratio. Subsequently, 0.9 mL of the RBC suspension was incubated with 0.1 mL of peptides at various concentrations, a negative control (100 μL PBS + 900 μL RBC suspension), and a positive control (100 μL of 0.5% Triton-X-100 + 900 μL of RBC suspension), and incubated at 37 °C for 24 h. Post incubation, all tubes were centrifuged at 3000 rpm for 10 min. 0.1 mL of the supernatant was then transferred to 96-well plates, and the absorbance of the supernatant was read at 540 nm. […] The corrected values were calculated as Acontrol=Apos−Aneg and Asample=Atest−Aneg where Apos , Aneg and Atest are the absorbance values of the positive control, negative control, and peptide-treated sample (given concentration), respectively.

[2] = within 24 h at 5 mg/mL; cited from earlier work
[3] = cited from earlier work

LPLPVLK [soy protein-derived peptide, literature]
IC50 (α-glucosidase): 237.4 ± 0.52 µM

MQIFVK [Peptide 1, MQIFVK]
IC50 (aldose reductase; mean ± SD, read-out: Aldose Reductase Inhibition IC50 (converted)): 29.4 µM
IC50 (aldose reductase; read-out: Aldose Reductase Inhibition IC50 (value in bracket) (converted)): 29.4 µM
IC50 ([1]; mean ± SD, read-out: α-Amylase Inhibition IC50 (converted)): 115 µM
IC50 ([1]; read-out: α-Amylase Inhibition IC50 (value in bracket) (converted)): 115 µM
Hemolytic Assay (HC50) (human erythrocytes): 220.85 ± 0.20 µg/mL
Hemolytic Assay (HC50) (value in bracket) (human erythrocytes; red cells of human, 24 h): 288.70 µM

SWLRL
IC50 (α-glucosidase): 182.1 ± 0.74 µM

Triton-X-100 [reference compound]
Hemolytic Assay (HC50) (human erythrocytes; human RBC, 37 °C, 24 h): 105.25 ± 0.17 µg/mL
Hemolytic Assay (HC50) (value in bracket) (human erythrocytes; human RBC, 37 °C, 24 h): 162.67 µM
Hemolytic Assay (HC50) (human erythrocytes; human RBC, 37 °C, 24 h, listed as Triton X-100): 105.25 µg/mL

VVFPGCPE [Ginkgo biloba peptide, literature]
methylglyoxal scavenging [2]: up to 66.50%

WLRL
IC50 (α-glucosidase): 162.3 ± 0.74 µM

YFYPEL
superoxide scavenging activity [3]: 65.8 µg/mL
EC50 ([3]; read-out: superoxide scavenging activity (value in bracket)): 79.2 µM

— PMC12785583, “Coconut Milk-Derived Bioactive Peptides as Multifunctional Agents Against Hyperglycemia, Oxidative Stress, and Glycation: An Integrated Experimental and Computational Study” (International Journal of Molecular Sciences, 2025)
